Measured values as given in patent US20030199671A1, “Binding molecules for Fc-region polypeptides” (priority 2001, published 2003).
Positions of bridges follow the written chain, without caps; N, C: chain ends. Residues, ends and D or L forms follow the SMILES beside them. *: point of attachment. 5FAM = O=C1OC2(c3ccc(O)cc3Oc3cc(O)ccc32)c2ccc(C(=O)*)cc21

How the values were obtained:
human IgG1 = molecular target: T1, human IgG1 (Homo sapiens, UniProt P01857); type: binding; conditions: peptide immobilized on NHS activated sepharose 4 fast flow, target ligand density 2.0 μmole/ml; batch filterplate; hIgG1
T1 construct: all human subtypes derived from myeloma patients; purchased Calbiochem 400120; host or cells: myeloma patients
T1 sequence (P01857 1-330 isoform P01857-1): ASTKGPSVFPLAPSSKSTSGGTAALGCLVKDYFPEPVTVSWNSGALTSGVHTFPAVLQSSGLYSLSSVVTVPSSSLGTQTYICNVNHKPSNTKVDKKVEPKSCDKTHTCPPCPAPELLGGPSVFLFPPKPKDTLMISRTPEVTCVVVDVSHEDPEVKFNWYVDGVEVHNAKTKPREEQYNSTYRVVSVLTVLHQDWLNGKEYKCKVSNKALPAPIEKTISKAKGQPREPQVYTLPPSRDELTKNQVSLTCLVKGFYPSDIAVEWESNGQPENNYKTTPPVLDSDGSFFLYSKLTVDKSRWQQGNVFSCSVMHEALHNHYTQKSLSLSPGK
Method in brief: (§1)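 Static binding, peptide resin + IgG, 1-1.5 h RT with shaking, PBST pH 7.2 or TBST pH 7.5. Flow-through read at A280 vs buffer blank; % bound = control minus unbound. Elution at pH 8.5 bicarbonate and/or pH 4.0 citrate, 30-60 min.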

human IgG2 = molecular target: T2, human IgG2 (Homo sapiens, UniProt P01859); type: binding; conditions: peptide immobilized on NHS activated sepharose 4 fast flow, target ligand density 2.0 μmole/ml; batch filterplate; hIgG2
T2 construct: all human subtypes derived from myeloma patients; purchased Calbiochem 400122; host or cells: myeloma patients
T2 sequence (P01859 1-326 isoform P01859-1): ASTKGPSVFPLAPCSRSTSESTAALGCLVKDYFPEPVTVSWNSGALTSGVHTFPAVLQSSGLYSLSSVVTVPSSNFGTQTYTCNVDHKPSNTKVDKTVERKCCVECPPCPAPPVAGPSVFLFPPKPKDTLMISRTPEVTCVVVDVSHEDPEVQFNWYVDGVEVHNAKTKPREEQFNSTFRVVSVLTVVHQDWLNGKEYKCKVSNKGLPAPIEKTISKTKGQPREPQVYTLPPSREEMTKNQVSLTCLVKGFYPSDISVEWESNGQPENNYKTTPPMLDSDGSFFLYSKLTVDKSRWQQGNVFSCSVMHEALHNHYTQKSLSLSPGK
Method in brief: (§2)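 Read-out is A280 of unbound IgG (1.4 mg/ml extinction coefficient), with percent bound derived against non-filtered or negative controls. Targets were incubated with immobilized peptides in PBST or TBST for 1-1.5 h at room temperature. Hydrolyzed Sepharose and immobilized Protein A serve as negative and positive controls.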

human IgG = type: binding; conditions: batch filterplate; for Batch Binding (% Capture of Total Load) hIgG: peptide immobilized on NHS activated sepharose 4 fast flow, target ligand density 2.0 μmole/ml
Method in brief: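 Species specificity was assessed by static binding of unfractionated IgG to peptide resin in pH 7.2 phosphate or pH 7.5 Tris buffer with 0.01% Tween 20. Bound fraction was calculated from A280 of unbound target.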

[1] = Solubility in aqueous coupling buffer; type: physicochemical; conditions: aqueous coupling conditions
Text: The varying degree of binding may be due to, in part, to lower coupling efficiencies as a result of varying degrees of solubility in aqueous coupling conditions. […] However, coupling efficiencies of all nine DX253 variants monitored by rp-HPLC was high and averaged>85%. Actual ligand densities were not determined.

IgG3 = IgG3 (Homo sapiens, UniProt P01860); type: binding; parameters: all human subtypes derived from myeloma patients; purchased Calbiochem 400124; host or cells: myeloma patients; conditions: peptide immobilized on NHS activated sepharose 4 fast flow, target ligand density 2.0 μmole/ml; batch filterplate; hIgG3
Chain of IgG3 (P01860 1-377 isoform P01860-1): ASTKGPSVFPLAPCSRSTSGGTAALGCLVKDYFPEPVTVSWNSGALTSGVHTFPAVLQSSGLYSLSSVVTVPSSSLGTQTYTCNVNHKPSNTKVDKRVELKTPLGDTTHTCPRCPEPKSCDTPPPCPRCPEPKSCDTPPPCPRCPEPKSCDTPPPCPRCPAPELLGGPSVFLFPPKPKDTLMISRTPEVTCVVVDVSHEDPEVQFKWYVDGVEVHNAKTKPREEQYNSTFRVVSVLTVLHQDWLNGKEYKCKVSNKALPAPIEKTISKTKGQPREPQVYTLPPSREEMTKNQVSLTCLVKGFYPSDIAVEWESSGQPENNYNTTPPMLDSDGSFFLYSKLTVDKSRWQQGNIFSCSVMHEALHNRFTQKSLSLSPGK
Method in brief: as §1

IgG4 = IgG4 (Homo sapiens, UniProt P01861); type: binding; parameters: all human subtypes derived from myeloma patients; purchased Calbiochem 400126; host or cells: myeloma patients; conditions: peptide immobilized on NHS activated sepharose 4 fast flow, target ligand density 2.0 μmole/ml; batch filterplate; hIgG4
Chain of IgG4 (P01861 1-327 isoform P01861-1): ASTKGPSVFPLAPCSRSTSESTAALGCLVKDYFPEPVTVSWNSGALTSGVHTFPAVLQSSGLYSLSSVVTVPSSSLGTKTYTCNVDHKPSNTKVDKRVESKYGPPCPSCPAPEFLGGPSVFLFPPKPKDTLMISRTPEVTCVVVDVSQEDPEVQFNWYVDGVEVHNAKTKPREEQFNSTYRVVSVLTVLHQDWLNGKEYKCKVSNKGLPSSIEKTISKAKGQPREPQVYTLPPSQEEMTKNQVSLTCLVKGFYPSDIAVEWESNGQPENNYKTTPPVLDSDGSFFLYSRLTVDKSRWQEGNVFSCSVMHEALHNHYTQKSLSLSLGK
Method in brief: as §2

[2] = cited from earlier work
human plasma IgG1 = molecular target: T3, human plasma IgG1 (Homo sapiens, UniProt P01857); assay: Fluorescence anisotropy binding, fluorescein-labeled peptide; conditions: 2 nM labeled peptide; PBS with 0.01% Tween 20
T3 construct: the individual human plasma IgG isoforms: IgG1, IgG2, IgG3, or IgG4; purchased Calbiochem; host or cells: human plasma
T3 sequence (P01857 1-330 isoform P01857-1): as the sequence (P01857 1-330 isoform P01857-1) above
Description: (§3) All measurements were performed in 384 well microplates with 20 nM fluorescein-labeled peptide and various concentrations of the IgG isoform in a volume of between 10 and 20 μl using a Tecan Polarion fluorescence polarization plate reader. All binding buffers included 0.01% (v/v) Tween 20 to prevent peptide adsorption to the microplate. The binding mixture was equilibrated for 10 minutes in the microplate at 30° C. prior to performing the measurement.
(§4) Peptides were synthesized, fluorescein-labeled and HPLC purified as described above. Binding studies were performed using either a mixture of human plasma IgG isoforms (the Fc protein) or the individual human plasma IgG isoforms: IgG1, IgG2, IgG3, or IgG4.
(§5) Measurements were performed in 384-well microplates with 2 nM fluorescein-labeled peptide and a varied concentration of the IgG isoform target in a volume of 10 μl using a Tecan Polarion fluorescence polarization plate reader. The Fc binding buffer was 50 mM Tris-HCl, 200 mM NaCl, pH 8.0, 0.01% Tween 20. The IgG binding buffer was PBS with 0.01% Tween 20. The binding mixtures were equilibrated for 10 minutes in the microplate at 30° C. prior to performing the measurements.

human plasma IgG2 = molecular target: T4, human plasma IgG2 (Homo sapiens, UniProt P01859); assay: as above; conditions: 2 nM labeled peptide; PBS with 0.01% Tween 20
T4 construct: the individual human plasma IgG isoforms: IgG1, IgG2, IgG3, or IgG4; purchased Calbiochem; host or cells: human plasma
T4 sequence (P01859 1-326 isoform P01859-1): as the sequence (P01859 1-326 isoform P01859-1) above
Description: as §3, §4, §5

[3] = molecular target: Fc (mixture of human plasma IgG isoforms); assay: as above; conditions: 2 nM labeled peptide; 50 mM Tris-HCl, 200 mM NaCl, pH 8.0, 0.01% Tween 20
Description: (§6) Peptides were synthesized by BACHEM Bioscience, Inc., (King of Prussia, Pa.), fluorescein labeled and purified by HPLC. Binding studies were performed using either a mixture of human plasma IgG isoforms (the Fc target) or the individual human plasma IgG isoforms: IgG1, IgG2, IgG3, or IgG4. All Fc target proteins were obtained from Calbiochem.
as §3, §4, §5

human plasma IgG4 = molecular target: T5, human plasma IgG4 (Homo sapiens, UniProt P01861); assay: as above; conditions: 2 nM labeled peptide; PBS with 0.01% Tween 20
T5 construct: the individual human plasma IgG isoforms: IgG1, IgG2, IgG3, or IgG4; purchased Calbiochem; host or cells: human plasma
T5 sequence (P01861 1-327 isoform P01861-1): as the sequence (P01861 1-327 isoform P01861-1) above
Description: as §6, §3, §4, §5

| Compound | Batch Binding (% Capture of Total Load) hIgG1 (human IgG1) | Batch Binding (% Capture of Total Load) hIgG2 (human IgG2) | Batch Binding (% Capture of Total Load) hIgG (human IgG) | Solubility in aqueous coupling buffer [1] | Batch Binding (% Capture of Total Load) hIgG3 (IgG3) | Batch Binding (% Capture of Total Load) hIgG4 (IgG4) | Binding properties / profile relative to parent peptide (human IgG; human IgG and subtypes) | KD (μM) IgG1 (human plasma IgG1) | KD (μM) IgG2 (human plasma IgG2) | KD (μM) Fc [3] | KD (μM) IgG4 (human plasma IgG4) | pKa of the carboxylic acid group [2] |
| --- | --- | --- | --- | --- | --- | --- | --- | --- | --- | --- | --- | --- |
| CC(=O)N[C@H]1CSSC[C@@H](C(=O)N[C@@H](C)C(=O)NCC(=O)N[C@@H](Cc2c[nH]cn2)C(=O)N[C@@H](CCC(=O)O)C(=O)N2CCC[C@H]2C(=O)NCC(=O)N2CCC[C@H]2C(=O)N[C@@H](CCC(=O)O)C(=O)NCC(=O)NCC(=O)NCC(=O)N[C@@H](CCCCN)C(N)=O)NC(=O)[C@H](Cc2c[nH]c3ccccc23)NC(=O)[C@H](C(C)C)NC(=O)[C@H](CC(C)C)NC(=O)[C@H](C)NC(=O)CNC(=O)[C@H](CO)NC(=O)[C@H](Cc2c[nH]c3ccccc23)NC(=O)[C@H](CC(=O)O)NC(=O)[C@H](CCCNC(=N)N)NC(=O)[C@H](CO)NC1=O [DX1147] (Ac-CSRDWSGALVWCAGHEPGPEGGGK-NH2; disulfide 1-12) | 83% | 76% | 74% | not fully soluble | 0% | 47% | almost identical to those of DX253 | – | – | – | – | – |
| O=C(O)c1ccccc1-c1c2cc(F)c(=O)cc-2oc2cc(O)c(F)cc12 [Oregon Green] | – | – | – | – | – | – | – | – | – | – | – | 4.7 |
| CC(=O)NCC(=O)N[C@H]1CSSC[C@@H](C(=O)N[C@@H](C)C(=O)NCC(=O)N[C@@H](Cc2c[nH]cn2)C(=O)N[C@@H](CCC(=O)O)C(=O)N2CCC[C@H]2C(=O)NCC(=O)N2CCC[C@H]2C(=O)N[C@@H](CCC(=O)O)C(=O)NCC(=O)NCC(=O)NCC(=O)N[C@@H](CCCCN)C(N)=O)NC(=O)[C@H](Cc2c[nH]c3ccccc23)NC(=O)[C@H](C(C)C)NC(=O)[C@H](CC(C)C)NC(=O)[C@H](C)NC(=O)CNC(=O)[C@H](CO)NC(=O)[C@H](Cc2c[nH]c3ccccc23)NC(=O)[C@H](CC(=O)O)NC(=O)[C@H](CCCNC(=N)N)NC(=O)[C@H](CO)NC1=O [DX1146] (Ac-GCSRDWSGALVWCAGHEPGPEGGGK-NH2; disulfide 2-13) | 83% | 80% | 73% | not fully soluble | 0% | 50% | – | – | – | – | – | – |

Now from value to molecule, other results behind:

| Batch Binding (% Capture of Total Load) hIgG1 (human IgG1) | Batch Binding (% Capture of Total Load) hIgG2 (human IgG2) | Batch Binding (% Capture of Total Load) hIgG (human IgG) | Solubility in aqueous coupling buffer [1] | Batch Binding (% Capture of Total Load) hIgG3 (IgG3) | Batch Binding (% Capture of Total Load) hIgG4 (IgG4) | Binding properties / profile relative to parent peptide (human IgG; human IgG and subtypes) | KD (μM) IgG1 (human plasma IgG1) | KD (μM) IgG2 (human plasma IgG2) | KD (μM) Fc [3] | KD (μM) IgG4 (human plasma IgG4) | Compound | pKa of the carboxylic acid group [2] |
| --- | --- | --- | --- | --- | --- | --- | --- | --- | --- | --- | --- | --- |
| 43% | 29% | 40% | not fully soluble | 0% | 20% | – | – | – | – | – | CC(=O)N[C@@H](CCCNC(=N)N)C(=O)N[C@@H](CCCNC(=N)N)C(=O)N[C@@H](C)C(=O)N[C@H]1CSSC[C@@H](C(=O)N[C@@H](C)C(=O)NCC(=O)N[C@@H](Cc2c[nH]cn2)C(=O)N[C@@H](CCC(=O)O)C(=O)N2CCC[C@H]2C(=O)NCC(=O)N2CCC[C@H]2C(=O)N[C@@H](CCC(=O)O)C(=O)NCC(=O)NCC(=O)NCC(=O)N[C@@H](CCCCN)C(N)=O)NC(=O)[C@H](Cc2c[nH]c3ccccc23)NC(=O)[C@H](C(C)C)NC(=O)[C@H](CC(C)C)NC(=O)[C@H](C)NC(=O)CNC(=O)[C@H](CO)NC(=O)[C@H](Cc2c[nH]c3ccccc23)NC(=O)[C@H](CC(=O)O)NC(=O)[C@H](CCCNC(=N)N)NC(=O)[C@H](CO)NC1=O [DX1140] (Ac-RRACSRDWSGALVWCAGHEPGPEGGGK-NH2; disulfide 4-15) | – |
| 43% | 34% | 36% | not fully soluble | 0% | 22% | – | – | – | – | – | CC(=O)N[C@@H](CO)C(=O)N[C@@H](CCCNC(=N)N)C(=O)N[C@@H](C)C(=O)N[C@H]1CSSC[C@@H](C(=O)N[C@@H](C)C(=O)NCC(=O)N[C@@H](Cc2c[nH]cn2)C(=O)N[C@@H](CCC(=O)O)C(=O)N2CCC[C@H]2C(=O)NCC(=O)N2CCC[C@H]2C(=O)N[C@@H](CCC(=O)O)C(=O)NCC(=O)NCC(=O)NCC(=O)N[C@@H](CCCCN)C(N)=O)NC(=O)[C@H](Cc2c[nH]c3ccccc23)NC(=O)[C@H](C(C)C)NC(=O)[C@H](CC(C)C)NC(=O)[C@H](C)NC(=O)CNC(=O)[C@H](CO)NC(=O)[C@H](Cc2c[nH]c3ccccc23)NC(=O)[C@H](CC(=O)O)NC(=O)[C@H](CCCNC(=N)N)NC(=O)[C@H](CO)NC1=O [DX1139] (Ac-SRACSRDWSGALVWCAGHEPGPEGGGK-NH2; disulfide 4-15) | – |
| – | – | – | – | – | – | – | No binding | No binding | No binding | No binding | CC(=O)N[C@@H](C)C(=O)NCC(=O)N[C@@H](CCCCN)C(=O)N[C@@H](Cc1ccc(O)cc1)C(=O)N[C@@H](Cc1c[nH]c2ccccc12)C(=O)N[C@H]1CSSC[C@@H](C(=O)N[C@@H](CCCCN)C(=O)N[C@H](C(=O)NCC(=O)N[C@H](C(=O)N2CCC[C@H]2C(=O)NCC(=O)N2CCC[C@H]2C(=O)N[C@@H](CCC(=O)O)C(=O)NCC(=O)NCC(=O)NCC(=O)N[C@@H](CCCCNC(=O)c2ccc3c(c2)C(=O)OC32c3ccc(O)cc3Oc3cc(O)ccc32)C(N)=O)[C@@H](C)O)[C@@H](C)O)NC(=O)[C@H](CCC(N)=O)NC(=O)[C@H](CC(C)C)NC(=O)CNC(=O)[C@H](Cc2c[nH]c3ccccc23)NC(=O)[C@H](Cc2ccccc2)NC(=O)[C@H](CO)NC1=O [DX300] (Ac-AGKYWCSFWGLQCKTGTPGPEGGGK(5FAM)-NH2; disulfide 6-13) | – |
